51 molecules from US20210198277A1, “AMINE-SUBSTITUTED ARYL OR HETEROARYL COMPOUNDS” (Epizyme, Inc., priority 2016, published 2021) can be followed below.

This assay has as its target T1, EHMT2 (Homo sapiens, UniProt Q96KQ7).
T1 construct: host or cells: MDA-MB-231
T1 sequence (Q96KQ7 1-1210): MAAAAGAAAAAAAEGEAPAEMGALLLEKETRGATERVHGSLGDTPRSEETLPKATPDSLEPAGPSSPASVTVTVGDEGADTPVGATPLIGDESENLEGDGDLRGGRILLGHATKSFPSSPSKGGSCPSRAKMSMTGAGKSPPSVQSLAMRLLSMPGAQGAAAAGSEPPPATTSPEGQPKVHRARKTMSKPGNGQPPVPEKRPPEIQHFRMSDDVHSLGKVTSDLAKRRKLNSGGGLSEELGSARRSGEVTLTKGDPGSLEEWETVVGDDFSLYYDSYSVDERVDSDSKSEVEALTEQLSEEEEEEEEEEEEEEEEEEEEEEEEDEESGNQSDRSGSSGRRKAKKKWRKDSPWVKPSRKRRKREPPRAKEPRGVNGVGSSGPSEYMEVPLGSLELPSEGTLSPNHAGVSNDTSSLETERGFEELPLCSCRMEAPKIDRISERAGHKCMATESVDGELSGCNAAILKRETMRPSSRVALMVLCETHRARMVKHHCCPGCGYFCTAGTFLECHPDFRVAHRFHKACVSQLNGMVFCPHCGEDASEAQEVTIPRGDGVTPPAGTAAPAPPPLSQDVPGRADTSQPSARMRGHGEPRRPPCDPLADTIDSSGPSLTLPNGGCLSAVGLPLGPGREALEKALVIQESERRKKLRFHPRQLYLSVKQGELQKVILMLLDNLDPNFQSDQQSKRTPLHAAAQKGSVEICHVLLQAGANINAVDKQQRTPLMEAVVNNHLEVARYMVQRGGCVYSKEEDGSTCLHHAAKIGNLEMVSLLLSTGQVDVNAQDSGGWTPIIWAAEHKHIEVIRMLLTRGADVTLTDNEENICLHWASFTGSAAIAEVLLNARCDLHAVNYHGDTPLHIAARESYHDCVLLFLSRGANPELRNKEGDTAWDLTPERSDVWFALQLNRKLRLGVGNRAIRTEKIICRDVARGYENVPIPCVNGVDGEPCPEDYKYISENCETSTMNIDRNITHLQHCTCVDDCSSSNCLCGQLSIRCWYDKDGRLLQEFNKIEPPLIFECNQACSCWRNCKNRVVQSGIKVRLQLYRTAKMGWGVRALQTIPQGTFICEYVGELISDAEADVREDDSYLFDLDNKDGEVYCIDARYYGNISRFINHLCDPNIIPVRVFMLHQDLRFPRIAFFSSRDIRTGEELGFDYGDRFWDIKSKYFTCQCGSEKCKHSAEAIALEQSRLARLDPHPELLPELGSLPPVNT
The assay can be described thus: MDA-MB-231 H3K9me2 in-cell Western assay (EHMT2 ICW). Type of assay: cell-based. As to conditions: Table VI; read-out: EHMT2 ICW IC50. The method, boiled down: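 For 48 h at 37 °C, breast cancer MDA-MB-231 cells were incubated with compound, then fixed and immunostained for H3K9me2, with DRAQ5 used for normalisation. Each well's signal ratio yielded percent inhibition, and IC50 values were derived by fitting a four-parameter curve.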

Usually IC50 stands for the concentration at which inhibition is half-maximal. On to `COc1cnc(Nc2cc(NCC3COC3)cnn2)cc1OCCCN1CCCC1` [Compound 894], for which the IC50 was above 10 µM.

Turning to `COc1cc2cc(C#N)c(C)nc2cc1OCCCN1CCCC1` [Compound 895], the IC50 was above 10 µM.

`COc1cc2cc(F)c(C)nc2cc1OCCCN1CCCC1` [Compound 896]: the IC50 was above 10 µM.

As to `CNc1nc2cc(OCCCN3CCCC3)c(OC)cc2cc1F` [Compound 897], the IC50 was above 10 µM.

As to `CNC(=O)C1CCN(c2cc3nc(NC)cc(C)c3cc2OC)C1` (stereo not drawn) [Compound 900], the half-maximal inhibitory concentration (IC50) was in the range of 0.1 to 1 µM.

`CNc1cc(C2CCOCC2)c2cc(OC)c(OCCCN3CC(O)C3)cc2n1` [Compound 902]: the IC50 is 0.1 to 1 µM.

As to `CNc1nc2cc(OCCCN3CCCC3)c(OC)cc2cc1Cl` [Compound 903], the IC50 is 1 to 10 µM.

`CNc1cc(C)nc(Nc2ccc(OC)c(C#CCN3CCOCC3)c2)n1` [Compound 904]: the IC50 was above 10 µM.

For `CNc1cc(C)nc(Nc2ccc(OC)c(OC[C@@H](O)CN3CCCC3)c2)n1` [Compound 905], the IC50 lay within 0.1 to 1 µM.

For `CNc1ccnc(Nc2ccc(OC)c(OC[C@@H](O)CN3CCC3)c2)n1` [Compound 907], the IC50 was 1 to 10 µM.

`CNc1ccnc(Nc2ccc(OC)c(OC[C@H](O)CN3CCC3)c2)n1` [Compound 908]: the IC50 lay within 0.1 to 1 µM.

Consider `CNc1ccnc(Nc2cnc(OC)c(OC[C@@H]3CCN(C)C3)c2)n1` [Compound 912], for which the IC50 lay in the range of 0.1 to 1 µM.

Take `CNc1ccnc(Nc2cnc(OC)c(OCCCN3CCC3)c2)n1` [Compound 914]: the IC50 is 0.1 to 1 µM.

With `CNCCCOc1cc(Nc2nccc(NC)n2)ccc1OC` [Compound 916], the IC50 lay within 1 to 10 µM.

For `CNCCCOc1cc(Nc2nccc(NC)n2)cnc1OC` [Compound 917], the IC50 lay within 1 to 10 µM.

As for `CNC[C@@H](O)COc1cc(Nc2nccc(NC)n2)cnc1OC` [Compound 918], the IC50 fell in the range of 1 to 10 µM.

With `CNc1ccnc(Nc2ccc(OC)c(OC[C@@H](CN3CCCC3)OC)c2)n1` [Compound 919], the IC50 was above 10 µM.

Regarding `CNc1ccnc(Nc2ccc(OC)c(OC[C@H](CN3CCCC3)OC)c2)n1` [Compound 920], the half-inhibitory concentration (IC50) is 0.1 to 1 µM.

On to `CNC[C@H](COc1cc(Nc2nccc(NC)n2)ccc1OC)OC` [Compound 921], for which the concentration for half-maximal inhibition (IC50) was above 10 µM.

In the case of `CNC[C@@H](COc1cc(Nc2nccc(NC)n2)ccc1OC)OC` [Compound 922], the IC50 was above 10 µM.

For `CCN1CC[C@@H](COc2cc(Nc3nccc(NC)n3)ccc2OC)C1` [Compound 927], the IC50 lay in the range of 0.1 to 1 µM.

For `CNc1ccnc(Nc2ccc(OC)c(OC[C@@H]3CCN(C4CC4)C3)c2)n1` [Compound 928], the IC50 is below 0.1 µM.

Regarding `CNc1ccnc(Nc2ccc(OC)c(OC[C@H]3CN(C)CCO3)c2)n1` [Compound 931], the IC50 was above 10 µM.

Consider `CCN1CCO[C@@H](COc2cc(Nc3nccc(NC)n3)ccc2OC)C1` [Compound 932], for which the IC50 is above 10 µM.

`CNc1ccnc(Nc2ccc(OC)c(OC[C@H]3CNCCO3)c2)n1` [Compound 933]: the IC50 was above 10 µM.

Turning to `CNc1ccnc(Nc2ccc(OC)c(OC[C@@H]3CN(C)CCO3)c2)n1` [Compound 936], the 50% inhibitory concentration (IC50) is above 10 µM.

Consider `CCN1CCO[C@H](COc2cc(Nc3nccc(NC)n3)ccc2OC)C1` [Compound 937], for which the half-maximal inhibitory concentration (IC50) is above 10 µM.

`CNc1ccnc(Nc2ccc(OC)c(OC[C@@H]3CNCCO3)c2)n1` [Compound 938]: the IC50 was above 10 µM.

Regarding `CNc1ccnc(Nc2ccc(OC)c(OC[C@@H](C)CN3CCC3)c2)n1` [Compound 943], the IC50 was 1 to 10 µM.

For the molecule `CNc1ccnc(Nc2ccc(OC)c(OC[C@H](C)CN3CCC3)c2)n1` [Compound 945], the 50% inhibitory concentration (IC50) was 0.1 to 1 µM.

Take `CCN1CC[C@@H](COc2cc(Nc3nc(C)cc4[nH]ncc34)ncc2OC)C1` [Compound 947]: the IC50 was 1 to 10 µM.

For `CNc1cc(C)nc(Nc2cnc(OC)c(OCCCN3CCC3)c2)n1` [Compound 949], the IC50 lay within 0.1 to 1 µM.

Consider `COc1cc2c(C3CCN(C)CC3)nc(N3CCCC3)nc2cc1OCCCN1CC(O)C1` [Compound 950], for which the IC50 lay in the range of 1 to 10 µM.

With `CCN1CC(COc2cc3nc(NC)nc(C4CCN(C)CC4)c3cc2OC)C1` [Compound 951], the IC50 lay in the range of 1 to 10 µM.

Take `CNc1nc(C2=CC(C)(C)NC(C)(C)C2)c2cc(OC)c(OCCCN3CCCC3)cc2n1` [Compound 961]: the IC50 is above 10 µM.

Consider `CNc1cc(C)nc(Nc2ccc(OC)c(OC[C@H](O)CNC3CCC3)c2)n1` [Compound 962], for which the IC50 fell in the range of 1 to 10 µM.

As for `CNc1cc(C)nc(Nc2cnc(OC)c(OC[C@H](O)CN3CCC3)c2)n1` [Compound 963], the IC50 was 0.1 to 1 µM.

On to `CNCCNCc1cc(Nc2nc(C)cc(NC)n2)ccc1OC` [Compound 964], for which the IC50 lay within 1 to 10 µM.

On to `CNc1cc(C)nc(Nc2ccc(OC)c(CNCCN3CCC3)c2)n1` [Compound 965], for which the IC50 was below 0.1 µM.

On to `CNc1ccnc(Nc2cnc(OC)c(OC[C@@H]3CCN(C4CCC4)C3)n2)n1` [Compound 974], for which the IC50 was in the range of 0.1 to 1 µM.

With `CNc1cc(C)nc(Nc2ccc(OC)c(OC[C@H](O)CN3CC(C)C3)c2)n1` [Compound 985], the IC50 fell in the range of 0.1 to 1 µM.

Take `CNc1cc(C)nc(Nc2ccc(OC)c(OC[C@H](O)CN3CC(F)C3)c2)n1` [Compound 986]: the IC50 was in the range of 1 to 10 µM.

With `CNc1cc(C)nc(Nc2ccc(OC)c(CNCCN(C)C)c2)n1` [Compound 990], the IC50 was in the range of 0.1 to 1 µM.

For the molecule `CNc1ccnc(Nc2ccc(OC)c(OCC(C)(O)CN3CCC3)c2)n1` (stereo not drawn) [Compound 1005], the IC50 was in the range of 1 to 10 µM.

As to `CCN1CCC(O)(COc2cc(Nc3nccc(NC)n3)ccc2OC)C1` (stereo not drawn) [Compound 1006], the half-maximal inhibitory concentration (IC50) fell in the range of 0.1 to 1 µM.

With `CCN1CCC(O)(COc2cc(Nc3nccc(NC)n3)ccc2OC)C1` (stereo not drawn) [Compound 1007], the IC50 is above 10 µM.

In the case of `CNc1ccnc(Nc2ccc(OC)c(OCC(C)CN3CCC3)c2)n1` (stereo not drawn) [Compound 1008], the IC50 fell in the range of 0.1 to 1 µM.

On to `CNCC(C)COc1cc(Nc2nccc(NC)n2)ccc1OC` (stereo not drawn) [Compound 1009], for which the 50% inhibitory concentration (IC50) was in the range of 1 to 10 µM.

Consider `CNCCC(C)Oc1cc(Nc2nccc(NC)n2)ccc1OC` (stereo not drawn) [Compound 1011], for which the IC50 was 1 to 10 µM.

For `CNc1ccnc(Nc2ccc(OC)c(OCCC(C)N3CCC3)c2)n1` (stereo not drawn) [Compound 1014], the IC50 lay in the range of 1 to 10 µM.

As for `CNc1ccnc(Nc2ccc(OC)c(OCCC(C)NC)c2)n1` (stereo not drawn) [Compound 1016], the IC50 lay within 1 to 10 µM.
